From patent publication US20130131033A1, “PHARMACEUTICAL COMPOSITION FOR TREATMENT OF RESPIRATORY TRACT INFECTIONS” (priority 2010, published 2013)
Values after ≈ are worked out from the molar mass of the structure shown.

Experiments:
Type in all cases: cell-based
[1] = test system: Streptococcus pneumoniae (MTCC 2672); assay: Broth macrodilution method (MIC); conditions: MTCC2672, individual drug alone, read-out: MIC (μg/ml) against Streptococcus pneumoniae
Method: (§1) […] LABS PVT. LTD. at its pre-clinical facility based at Chennai by Study No.: AMOX-538-09. The study report was generated on 1Mar. 2010. The study was conducted as per the approved study protocol.
(§2) The test substances used were three formulations, Formulation I, Formulation II and Formulation III prepared in accordance with Example 1, Example 2 and Example 3 respectively. […] The preparations and the method of the study were as per the approved protocol.

[2] = test system: Streptococcus pyogenes (MTCC 442); assay: Broth macrodilution method (MIC); conditions: MTCC442, individual drug alone, read-out: MIC (μg/ml) against Streptococcus pyogenes
Method: as §1, §2

[3] = test system: Streptococcus pneumoniae (MTCC 2672); assay: Disc diffusion method (zone of inhibition)
Method: as §1, §2
(§3) The sensitivity of the test substances and the reference standards were interpreted as per the CLSI zone diameter interpretive standards shown in Table 3.

[4] = test system: Streptococcus pyogenes (MTCC 442); assay: Disc diffusion method (zone of inhibition)
Method: as §1, §2, §3

For `CC1(C)S[C@@H]2[C@H](NC(=O)[C@H](N)c3ccc(O)cc3)C(=O)N2[C@H]1C(=O)O` [Amoxycillin], the MIC [1] was 0.063 µg/mL (≈ 0.172 µM), the MIC [2] was 0.031 µg/mL (≈ 0.0848 µM) and the “Zone Diameter Range (mm) S. pneumoniae” value ([3]; 8 μg/disc) was 33-36 mm. For the same molecule, the “Zone Diameter Range (mm) S. pneumoniae” value ([3]; 16 μg/disc) was 34-36 mm, the “Zone Diameter Range (mm) S. pneumoniae” value ([3]; 32 μg/disc) was 37-38 mm and the “Zone Diameter Range (mm) S. pyogenes” value ([4]; 8 μg/disc) was 32-33 mm. The “Zone Diameter Range (mm) S. pyogenes” value ([4]; 16 μg/disc) was 34-36 mm and the “Zone Diameter Range (mm) S. pyogenes” value ([4]; 32 μg/disc) was 37-39 mm.
